Reference: PubChem BioAssay AID1259407 (Chemical Carcinogenesis Research Information System (CCRIS), 2018)
Calls of active or inactive are those of the source. The rule behind the calls is not given here.

Test system: CCRIS mutagenicity, Ames/micronucleus/aberration tests
Test: CCRIS mutagenicity studies
[1] = Test System: AMES SALMONELLA TYPHIMURIUM, Strain/Indicator: TA98, Metabolic Activation: NONE, Method: PREINCUBATION
[2] = Test System: AMES SALMONELLA TYPHIMURIUM, Strain/Indicator: TA98, Metabolic Activation: NONE, Method: STANDARD PLATE
[3] = Test System: AMES SALMONELLA TYPHIMURIUM, Strain/Indicator: TA100, Metabolic Activation: NONE, Method: STANDARD PLATE
[4] = Test System: AMES SALMONELLA TYPHIMURIUM, Strain/Indicator: TA1537, Metabolic Activation: NONE, Method: STANDARD PLATE

Measured: mutagenic call

CC(I)C1OCC(CO)O1 (configuration not stated)
inactive: Test System: AMES SALMONELLA TYPHIMURIUM, Strain/Indicator: TA98, Metabolic Activation: HAMSTER, LIVER, S-9, AROCLOR 1254, Method: PREINCUBATION inactive; negative | [1] inactive; negative | Test System: AMES SALMONELLA TYPHIMURIUM, Strain/Indicator: TA98, Metabolic Activation: RAT, LIVER, S-9, AROCLOR 1254, Method: PREINCUBATION inactive; negative | Test System: AMES SALMONELLA TYPHIMURIUM, Strain/Indicator: TA1537, Metabolic Activation: HAMSTER, LIVER, S-9, AROCLOR 1254, Method: PREINCUBATION inactive; negative | Test System: AMES SALMONELLA TYPHIMURIUM, Strain/Indicator: TA1537, Metabolic Activation: NONE, Method: PREINCUBATION inactive; negative | Test System: AMES SALMONELLA TYPHIMURIUM, Strain/Indicator: TA1537, Metabolic Activation: RAT, LIVER, S-9, AROCLOR 1254, Method: PREINCUBATION inactive; negative | Test System: UDS RAT HEPATOCYTES, Metabolic Activation: NONE, Method: AUTORADIOGRAPHY inactive; negative
active: Test System: AMES SALMONELLA TYPHIMURIUM, Strain/Indicator: TA100, Metabolic Activation: HAMSTER, LIVER, S-9, AROCLOR 1254, Method: PREINCUBATION active; positive | Test System: AMES SALMONELLA TYPHIMURIUM, Strain/Indicator: TA100, Metabolic Activation: NONE, Method: PREINCUBATION active; positive | Test System: AMES SALMONELLA TYPHIMURIUM, Strain/Indicator: TA100, Metabolic Activation: RAT, LIVER, S-9, AROCLOR 1254, Method: PREINCUBATION active; positive | Test System: AMES SALMONELLA TYPHIMURIUM, Strain/Indicator: TA1535, Metabolic Activation: HAMSTER, LIVER, S-9, AROCLOR 1254, Method: PREINCUBATION active; positive | Test System: AMES SALMONELLA TYPHIMURIUM, Strain/Indicator: TA1535, Metabolic Activation: NONE, Method: PREINCUBATION active; positive | Test System: AMES SALMONELLA TYPHIMURIUM, Strain/Indicator: TA1535, Metabolic Activation: RAT, LIVER, S-9, AROCLOR 1254, Method: PREINCUBATION active; positive | Test System: MOUSE LYMPHOMA, Strain/Indicator: L5178Y (TK+/TK-), Metabolic Activation: NONE, Method: SUSPENSION/PLATE active; positive

O=[N+]([O-])c1ccc2c(c1)C(O)c1ccccc1-2 (configuration not stated)
active: [1] active; positive | Test System: AMES SALMONELLA TYPHIMURIUM, Strain/Indicator: TA98, Metabolic Activation: S-9, Method: PREINCUBATION active; positive

Cc1cc([N+](=O)[O-])c(C)c2c1[nH]c1ccc([N+](=O)[O-])cc12
active: [2] active; positive | Test System: AMES SALMONELLA TYPHIMURIUM, Strain/Indicator: TA98, Metabolic Activation: RAT LIVER S-9, AROCLOR 1254, Method: STANDARD PLATE active; positive | [3] active; positive | Test System: AMES SALMONELLA TYPHIMURIUM, Strain/Indicator: TA100, Metabolic Activation: RAT LIVER S-9, AROCLOR 1254, Method: STANDARD PLATE active; positive | [4] active; positive | Test System: AMES SALMONELLA TYPHIMURIUM, Strain/Indicator: TA1537, Metabolic Activation: RAT LIVER S-9, AROCLOR 1254, Method: STANDARD PLATE active; positive | Test System: AMES SALMONELLA TYPHIMURIUM, Strain/Indicator: TA1977, Metabolic Activation: NONE, Method: STANDARD PLATE active; positive | Test System: AMES SALMONELLA TYPHIMURIUM, Strain/Indicator: TA1977, Metabolic Activation: RAT LIVER S-9, AROCLOR 1254, Method: STANDARD PLATE active; positive

O=S(=O)(O)Oc1c2ccccc2c2ccc3cccc4ccc1c2c43
inactive: [1] inactive; negative | Test System: AMES SALMONELLA TYPHIMURIUM, Strain/Indicator: TA98, Metabolic Activation: RAT, LUNG, S-9, Method: PREINCUBATION inactive; negative

CCCCCCCCCCCCCC(=O)O[C@@H]1[C@@H](C)[C@@]2(O)[C@@H](C=C(CO)C[C@]3(O)C(=O)C(C)=C[C@@H]23)[C@@H]2C(C)(C)[C@]12OC(C)=O
inactive: End Point: IN VITRO CHROMOSOMAL ABERRATIONS, Test System: CHL/IU CELLS, Metabolic Activation: NONE inactive; negative | End Point: IN VITRO MICRONUCLEUS, Test System: CHL/IU CELLS, Metabolic Activation: NONE inactive; negative

ClCC(CCl)(CCl)CCl
inactive: Test System: AMES SALMONELLA TYPHIMURIUM, Strain/Indicator: TA97, Metabolic Activation: NONE, Method: STANDARD PLATE inactive; negative | [2] inactive; negative | Test System: AMES SALMONELLA TYPHIMURIUM, Strain/Indicator: TA98, Metabolic Activation: RAT, LIVER, S-9, AROCLOR, Method: STANDARD PLATE inactive; negative | [3] inactive; negative | Test System: AMES SALMONELLA TYPHIMURIUM, Strain/Indicator: TA100, Metabolic Activation: RAT, LIVER, S-9, AROCLOR, Method: STANDARD PLATE inactive; negative | Test System: AMES SALMONELLA TYPHIMURIUM, Strain/Indicator: TA1535, Metabolic Activation: NONE, Method: STANDARD PLATE inactive; negative | [4] inactive; negative | Test System: AMES SALMONELLA TYPHIMURIUM, Strain/Indicator: TA1538, Metabolic Activation: NONE, Method: STANDARD PLATE inactive; negative | Test System: AMES SALMONELLA TYPHIMURIUM, Strain/Indicator: TA2637, Metabolic Activation: NONE, Method: STANDARD PLATE inactive; negative

Nc1ccc(O)c2c1C(=O)C=CC2=O
active: Test System: Ames Salmonella typhimurium, Strain/Indicator: TA98, Metabolic Activation: None, Method: Preincubation active; positive | Test System: Ames Salmonella typhimurium, Strain/Indicator: TA98, Metabolic Activation: Rat, Liver, S9, Aroclor 1254, Method: Preincubation active; positive | Test System: Ames Salmonella typhimurium, Strain/Indicator: TA102, Metabolic Activation: Rat, Liver, S9, Aroclor 1254, Method: Preincubation active; positive
inactive: Test System: Ames Salmonella typhimurium, Strain/Indicator: TA97, Metabolic Activation: None, Method: Preincubation inactive; negative | Test System: Ames Salmonella typhimurium, Strain/Indicator: TA97, Metabolic Activation: Rat, Liver, S9, Aroclor 1254, Method: Preincubation inactive; negative | Test System: Ames Salmonella typhimurium, Strain/Indicator: TA100, Metabolic Activation: None, Method: Preincubation inactive; negative | Test System: Ames Salmonella typhimurium, Strain/Indicator: TA100, Metabolic Activation: Rat, Liver, S9, Aroclor 1254, Method: Preincubation inactive; negative | Test System: Ames Salmonella typhimurium, Strain/Indicator: TA102, Metabolic Activation: None, Method: Preincubation inactive; negative

CC1=C[C@H]2O[C@@H]3[C@H](O)C[C@](C)([C@@]2(CO)[C@H](O)C1=O)[C@]31CO1
active: End Point: IN VITRO CHROMOSOMAL ABERRATIONS, Test System: CHINESE HAMSTER V79 CELLS, Metabolic Activation: NONE active; positive (structural changes)
inactive: [2] inactive; negative | Test System: AMES SALMONELLA TYPHIMURIUM, Strain/Indicator: TA98, Metabolic Activation: RAT LIVER S-9, DELOR 103, Method: STANDARD PLATE inactive; negative | Test System: AMES SALMONELLA TYPHIMURIUM, Strain/Indicator: TA98, Metabolic Activation: RAT, LIVER, S-9, AROCLOR 1254, Method: STANDARD PLATE inactive; negative | [3] inactive; negative | Test System: AMES SALMONELLA TYPHIMURIUM, Strain/Indicator: TA100, Metabolic Activation: RAT LIVER S-9, DELOR 103, Method: STANDARD PLATE inactive; negative | Test System: AMES SALMONELLA TYPHIMURIUM, Strain/Indicator: TA100, Metabolic Activation: RAT, LIVER, S-9, AROCLOR 1254, Method: STANDARD PLATE inactive; negative
